Some test systems named below: MCF7 breast; M14 melanoma; SK-MEL-28 melanoma; LOX IMVI melanoma; UACC-257 melanoma; SW-620 colon; SK-OV-3 ovarian; HOP-62 NSCLC.
Assay in all cases: growth of human tumour cells (NCI), 48 h

The structures appear in SMILES notation. Several values for one entry are separate records, joined by “and”; a condition that tells them apart may be missing. Equal entries are not always repeated.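 Where inhibition never reached the appropriate level, the endpoint shown equals the highest concentration tested. Otherwise, values were interpolated linearly from a five-concentration, 48-hour dose response in 96-well plates. GI50: concentration for 50% inhibition of growth. TGI denotes the concentration required for complete inhibition of growth.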 Some results are limits rather than exact numbers.

For the compound `CC[C@@]1(O)C(=O)NCc2c1cc1n(c2=O)Cc2cc3ccccc3nc2-1`, the GI50 in the experiment with MCF7 breast was 0.823 µM; in the experiment on M14 melanoma, 1.49 µM; in the experiment on SK-MEL-28 melanoma, over 53.7 µM; in the experiment on LOX IMVI melanoma it was 2.06 µM; in the experiment with UACC-257 melanoma it was 7.95 µM; with SW-620 colon it was 3.39 µM. Also, the GI50 in the experiment with SK-OV-3 ovarian was 8.68 µM; in the experiment with HOP-62 NSCLC, 0.42 µM. The TGI in the experiment on M14 melanoma was 15.1 µM; with SK-MEL-28 melanoma, over 100 µM; in the experiment with LOX IMVI melanoma, over 100 µM; in the experiment with UACC-257 melanoma it was over 59.1 µM; in the experiment with SW-620 colon it was over 100 µM; in the experiment on SK-OV-3 ovarian, over 100 µM. In the experiment on HOP-62 NSCLC, this compound returned a TGI of 4.31 µM.

In the case of `Cn1nc(C(F)(F)F)c(-c2ccc(Cl)c(C(F)(F)F)c2)c1-c1ccc(OCc2ccc(Cl)cc2)cc1O`, the GI50 was 1.52 µM in the experiment on MCF7 breast; 1.81 µM in the experiment with M14 melanoma; 1.88 µM with SK-MEL-28 melanoma; 1.58 µM in the experiment with LOX IMVI melanoma; 1.37 µM in the experiment on UACC-257 melanoma; 1.84 µM in the experiment with SW-620 colon. Moreover, the GI50 was 1.42 µM in the experiment on SK-OV-3 ovarian and 1.58 µM in the experiment on HOP-62 NSCLC. For the same compound, the TGI with MCF7 breast is 6.01 µM; in the experiment with M14 melanoma it was 6.85 µM; with SK-MEL-28 melanoma, 7.33 µM; in the experiment with LOX IMVI melanoma, 5.73 µM; in the experiment with UACC-257 melanoma, 4.09 µM; in the experiment with SW-620 colon, 7.28 µM. The TGI in the experiment with SK-OV-3 ovarian stood at 4.32 µM; in the experiment with HOP-62 NSCLC, 6.04 µM.

Consider `Cn1c2ccccc2c(=Nc2ccccc2)c2c3ccccc3[nH]c21`, for which the GI50 in the experiment on MCF7 breast was 0.284 µM; in the experiment on M14 melanoma, 1.65 µM; in the experiment on SK-MEL-28 melanoma, 2.3 µM; in the experiment with UACC-257 melanoma, 3.02 µM; in the experiment on SW-620 colon, 1.09 µM; in the experiment on SK-OV-3 ovarian, 2.16 µM. The GI50 with HOP-62 NSCLC is 1.14 µM. The TGI in the experiment with MCF7 breast was 1.86 µM; in the experiment on M14 melanoma, 3.02 µM; in the experiment with SK-MEL-28 melanoma, 6.17 µM; in the experiment with UACC-257 melanoma, 16 µM; with SW-620 colon it was 2.9 µM; in the experiment with SK-OV-3 ovarian, 5.08 µM. The compound further showed a TGI in the experiment on HOP-62 NSCLC of 2.42 µM.

`Nc1[nH]c(=O)ncc1F`: the TGI with MCF7 breast, in the experiment with M14 melanoma, with SK-MEL-28 melanoma, in the experiment with LOX IMVI melanoma, in the experiment with UACC-257 melanoma and with SW-620 colon was over 100 µM in each case. In addition, the TGI in the experiment with SK-OV-3 ovarian and with HOP-62 NSCLC was over 100 µM in each case.

Regarding `COc1ccc(N2CCN(C(=O)c3ccccc3Nc3ccnc(C(F)(F)F)c3)CC2)cc1`, the GI50 in the experiment with MCF7 breast was 36.4 µM; in the experiment with M14 melanoma, 87.3 µM; in the experiment with SK-MEL-28 melanoma, over 100 µM; with LOX IMVI melanoma, 60.1 µM; with UACC-257 melanoma, 20.8 µM; in the experiment with SW-620 colon, over 100 µM. The GI50 is over 100 µM in the experiment on SK-OV-3 ovarian and 54.8 µM with HOP-62 NSCLC. Further, the TGI in the experiment with MCF7 breast, in the experiment with M14 melanoma, in the experiment with SK-MEL-28 melanoma, in the experiment on LOX IMVI melanoma, in the experiment with UACC-257 melanoma and in the experiment on SW-620 colon was over 100 µM in each case. The TGI with SK-OV-3 ovarian and in the experiment with HOP-62 NSCLC was over 100 µM each time.

In the case of `C[C@]12O[C@H](C[C@]1(O)CO)n1c3ccccc3c3c4c(c5c6ccccc6n2c5c31)CNC4=O`, the GI50 in the experiment with MCF7 breast is 0.0774 µM and 0.0605 µM; with M14 melanoma, 0.0159 µM and 0.0297 µM; in the experiment with SK-MEL-28 melanoma, 0.0851 µM and 0.0854 µM; in the experiment on LOX IMVI melanoma, 0.0531 µM and 0.13 µM; in the experiment with UACC-257 melanoma, 0.25 µM and 0.366 µM; in the experiment on SW-620 colon it was 0.05 µM and 0.0589 µM. The GI50 is 0.0183 µM and 0.0214 µM in the experiment on SK-OV-3 ovarian; 0.0499 µM and 0.0664 µM in the experiment with HOP-62 NSCLC. For the same compound, the TGI in the experiment with MCF7 breast was 3.41 µM and 1.92 µM; in the experiment with M14 melanoma it was 0.492 µM and 1.97 µM; in the experiment with SK-MEL-28 melanoma it was 1.12 µM and 1.36 µM; in the experiment with LOX IMVI melanoma it was 1.11 µM and 1.29 µM; in the experiment on UACC-257 melanoma it was 2.57 µM and 2.46 µM; in the experiment with SW-620 colon, > 10 µM and 7.84 µM. The TGI in the experiment with SK-OV-3 ovarian is 0.146 µM and 0.521 µM; in the experiment with HOP-62 NSCLC it was 1.25 µM and 1.07 µM.

With `COc1ccc(C(=O)c2cc(OC)c(OC)c(OC)c2)cc1OC(C)=O`, the GI50 is 0.0346 µM with MCF7 breast; under 0.0143 µM in the experiment with M14 melanoma; 11.2 µM in the experiment on SK-MEL-28 melanoma; 0.022 µM with LOX IMVI melanoma; over 100 µM in the experiment with UACC-257 melanoma; under 0.0184 µM with SW-620 colon. Moreover, the GI50 with SK-OV-3 ovarian was 0.0817 µM; with HOP-62 NSCLC, 0.0618 µM. In addition, the TGI with MCF7 breast, with M14 melanoma, in the experiment with SK-MEL-28 melanoma, with LOX IMVI melanoma, with UACC-257 melanoma and with SW-620 colon was over 100 µM throughout. Further, the TGI in the experiment with SK-OV-3 ovarian and in the experiment on HOP-62 NSCLC was over 100 µM each time.

In the case of `C/C(=C\c1ccc(Cl)cc1)C(C)(C)C(=O)O`, the TGI in the experiment with MCF7 breast, in the experiment on M14 melanoma, in the experiment on SK-MEL-28 melanoma, in the experiment with UACC-257 melanoma, in the experiment with SW-620 colon and in the experiment with SK-OV-3 ovarian was over 100 µM in each case. The compound further showed a TGI with HOP-62 NSCLC of over 100 µM.

Consider `CCCCCCCCCCCCn1c(C)nc2ccccc21`, for which the GI50 was 5.15 µM in the experiment on MCF7 breast; 13.7 µM in the experiment with M14 melanoma; 19.4 µM in the experiment on SK-MEL-28 melanoma; 3.72 µM in the experiment on LOX IMVI melanoma; 15.4 µM in the experiment with SW-620 colon; 13.6 µM with SK-OV-3 ovarian. Further, the GI50 with HOP-62 NSCLC is 12.4 µM. Moreover, the TGI in the experiment on MCF7 breast stood at 23.3 µM; with M14 melanoma it was 26.6 µM; in the experiment with SK-MEL-28 melanoma it was 34.5 µM; in the experiment on LOX IMVI melanoma, 20.5 µM; with SW-620 colon, 30.7 µM; with SK-OV-3 ovarian, 26.5 µM. For the same compound, in the experiment on HOP-62 NSCLC, the TGI came to 25.5 µM.

Consider `CC1(C)CCC[C@]23C(=O)O[C@](O)(C(=O)C4=C[C@@](C)(/C=C/CCCc5ccc6ccc7cccc8ccc5c6c78)CC[C@@]42O)[C@@H]13`, for which the GI50 is 0.196 µM in the experiment on M14 melanoma; 0.144 µM in the experiment with SK-MEL-28 melanoma; 0.164 µM in the experiment with LOX IMVI melanoma; 0.224 µM with UACC-257 melanoma; 0.179 µM in the experiment on SW-620 colon; 0.178 µM in the experiment on SK-OV-3 ovarian. Further, the GI50 with HOP-62 NSCLC was 0.215 µM. Moreover, the TGI worked out at 0.409 µM with M14 melanoma; 0.317 µM in the experiment on SK-MEL-28 melanoma; 0.31 µM in the experiment on LOX IMVI melanoma; 0.586 µM in the experiment on UACC-257 melanoma; 0.379 µM in the experiment on SW-620 colon; 0.324 µM with SK-OV-3 ovarian. The same compound came in with a TGI in the experiment on HOP-62 NSCLC of 0.563 µM.

The values are drawn from PubChem BioAssay (NCI).
